According to PMC8119466, “A screen of FDA-approved drugs identifies inhibitors of protein tyrosine phosphatase 4A3 (PTP4A3 or PRL-3)” (Scientific Reports, 2021):
Counter-ions that a name gives are not always drawn. Like-named read-outs stand apart in the source and are kept apart here.

Columns and labels:
Format in all cases: biochemical
recombinant PRL-1 = target: T1, recombinant PRL-1 (Homo sapiens, UniProt Q93096); assay: In vitro phosphatase assay (DiFMUP hydrolysis), PRL-1; further: test concentration or dose not given here
T1 construct: 6xHis (N, cleaved yes); made in house; host or cells: E. coli One Shot BL21 Star
T1 sequence (Q93096 1-173): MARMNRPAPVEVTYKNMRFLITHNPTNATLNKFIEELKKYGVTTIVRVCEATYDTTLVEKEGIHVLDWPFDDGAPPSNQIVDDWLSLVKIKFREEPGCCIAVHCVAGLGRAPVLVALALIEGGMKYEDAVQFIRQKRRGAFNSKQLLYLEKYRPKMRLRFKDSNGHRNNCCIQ

recombinant PRL-2 = target: T2, recombinant PRL-2 (Homo sapiens, UniProt Q12974); assay: In vitro phosphatase assay (DiFMUP hydrolysis), PRL-2;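 further: PRL-2 activity read as DiFMUP hydrolysis after 20 min at room temperature with drug, enzyme first pre-reduced at 4 °C for 20 min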
T2 construct: 6xHis (N, cleaved yes); made in house; host or cells: E. coli One Shot BL21 Star
T2 sequence (Q12974 1-167): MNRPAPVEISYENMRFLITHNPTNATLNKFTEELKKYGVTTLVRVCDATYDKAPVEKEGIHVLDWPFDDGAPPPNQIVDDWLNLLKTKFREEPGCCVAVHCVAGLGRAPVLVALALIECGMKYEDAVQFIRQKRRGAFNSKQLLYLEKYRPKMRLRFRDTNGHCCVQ

recombinant PRL-3 = target: T3, recombinant PRL-3 (Homo sapiens, UniProt O75365); assay: In vitro phosphatase assay (DiFMUP hydrolysis), PRL-3; further: test concentration or dose not given here
T3 construct: 6xHis (N, cleaved yes); made in house; host or cells: E. coli One Shot BL21 Star
T3 sequence (O75365 whole entry): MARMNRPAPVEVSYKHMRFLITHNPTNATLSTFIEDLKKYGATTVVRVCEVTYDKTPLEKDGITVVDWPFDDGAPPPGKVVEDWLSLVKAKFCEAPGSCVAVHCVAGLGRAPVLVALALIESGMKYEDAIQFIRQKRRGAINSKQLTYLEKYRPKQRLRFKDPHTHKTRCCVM

[1] = FDA-approved drug screen, compared to DMSO

SMILES | % Phosphatase Activity (compared to DMSO) PRL-1 (recombinant PRL-1; [1]) [%] | % Phosphatase Activity (compared to DMSO) PRL-2 (recombinant PRL-2; [1]) [%] | % Phosphatase Activity (compared to DMSO) PRL-3 (recombinant PRL-3; [1]) [%] | % Phosphatase Activity (compared to DMSO) PRL-1 (recombinant PRL-1) [%] | % Phosphatase Activity (compared to DMSO) PRL-2 (recombinant PRL-2) [%] | % Phosphatase Activity (compared to DMSO) PRL-3 (recombinant PRL-3) [%]
CNC(=O)c1ccc(N2C(=S)N(c3ccc(C#N)c(C(F)(F)F)c3)C(=O)C2(C)C)cc1F [Enzalutamide (MDV3100)] | 90 | 89 | 71 |  |  | 
Cn1cc(C2=C(c3cn(C4CCN(Cc5ccccn5)CC4)c4ccccc34)C(=O)NC2=O)c2ccccc21 [Enzastaurin (LY317615)] | 82 | 76 | 82 |  |  | 
NS(=O)(=O)NCCNc1nonc1/C(=N/O)Nc1ccc(F)c(Br)c1 [Epacadostat (INCB024360)] | 111 | 98 | 95 |  |  | 
CC(/C=C1\SC(=S)N(CC(=O)O)C1=O)=C\c1ccccc1 [Epalrestat] | 40 | 17 | 74 |  |  | 
NC1=NCC2c3ccccc3Cc3ccccc3N12 (stereo not drawn) [Epinastine HCl] |  |  |  | 96 | 109 | 80
CNC[C@H](O)c1ccc(O)c(O)c1 [Epinephrine Bitartrate] |  |  |  | 116 | 90 | 82
CNC[C@H](O)c1ccc(O)c(O)c1 [Epinephrine HCl] |  |  |  | 98 | 132 | 90
COc1cccc2c1C(=O)c1c(O)c3c(c(O)c1C2=O)C[C@@](O)(C(=O)CO)C[C@@H]3O[C@H]1C[C@H](N)[C@@H](O)[C@H](C)O1 [Epirubicin HCl] | 78 | 90 | 58 |  |  | 
COC(=O)[C@@H]1CC2=CC(=O)CC[C@]2(C)[C@@]23O[C@@H]2C[C@@]2(C)[C@@H](CC[C@@]24CCC(=O)O4)[C@H]13 [Eplerenone] | 105 | 112 | 81 |  |  | 
C/C(=C\c1csc(C)n1)[C@@H]1C[C@@H]2O[C@]2(C)CCC[C@H](C)[C@H](O)[C@@H](C)C(=O)C(C)(C)[C@@H](O)CC(=O)O1 [Epothilone B (EPO906, Patupilone)] | 98 | 93 | 80 |  |  | 
CCCCc1ncc(/C=C(\Cc2cccs2)C(=O)O)n1Cc1ccc(C(=O)O)cc1 [Eprosartan Mesylate] | 89 | 100 | 72 |  |  | 
O=C(O)CSCC(=O)NC1CCSC1=O (stereo not drawn) [Erdosteine] | 93 | 89 | 95 |  |  | 
C#Cc1cccc(Nc2ncnc3cc(OCCOC)c(OCCOC)cc23)c1.Cl [Erlotinib HCl (OSI-744)] | 110 | 128 | 87 |  |  | 
C#Cc1cccc(Nc2ncnc3cc(OCCOC)c(OCCOC)cc23)c1 [Erlotinib] | 113 | 110 | 123 |  |  | 
CCOC(=O)CCC(=O)O[C@H]1[C@H](O[C@@H]2[C@@H](C)[C@H](O[C@H]3C[C@@](C)(OC)[C@@H](O)[C@H](C)O3)[C@@H](C)C(=O)O[C@H](CC)[C@@](C)(O)[C@H](O)[C@@H](C)C(=O)[C@H](C)C[C@@]2(C)O)O[C@H](C)C[C@@H]1N(C)C [Erythromycin Ethylsuccinate] | 85 | 82 | 71 |  |  | 
CC[C@H]1OC(=O)[C@H](C)[C@@H](O[C@H]2C[C@@](C)(OC)[C@@H](O)[C@H](C)O2)[C@H](C)[C@@H](O[C@@H]2O[C@H](C)C[C@H](N(C)C)[C@H]2O)[C@](C)(O)C[C@@H](C)C(=O)[C@H](C)[C@@H](O)[C@]1(C)O [Erythromycin] | 91 | 93 | 79 |  |  | 
CN(C)CCC[C@@]1(c2ccc(F)cc2)OCc2cc(C#N)ccc21 [Escitalopram Oxalate] | 89 | 117 | 67 |  |  | 
CC(=O)O[C@H]1Cc2ccccc2N(C(N)=O)c2ccccc21 [Eslicarbazepine Acetate] | 94 | 117 | 75 |  |  | 
COC(=O)CCc1ccc(OCC(O)CNC(C)C)cc1 (stereo not drawn) [Esmolol HCl] | 93 | 101 | 73 |  |  | 
